Tested on: Cochliobolus miyabeanus
Assay: Activity against brown spot of rice caused by Cochliobolus miyabeanus, protective application
Assay type: in vivo
Details: individual active compound, rice seedlings, rated after six days
Procedure: The active compounds, separately or jointly, were prepared as a stock solution comprising 0.25% by weight of active compound in acetone or DMSO. 1% by weight of the emulsifier Uniperol® EL (wetting agent having emulsifying and dispersing action based on ethoxylated alkylphenols) was added to this solution, and the mixture was appropriately diluted with water to the desired concentration.
Use example—Activity against brown spot of rice caused by Cochliobolus miyabeanus, protective application Leaves of rice seedlings of the cultivar “Tai-Nong 67” which had been grown in pots were sprayed to runoff point with an aqueous suspension having the concentration of active compound stated below. The next day, the plants were inoculated with an aqueous spore suspension of Cochliobolus miyabeanus. The test plants were then placed in climatized chambers at 22-24° C. and 95-99% relative atmospheric humidity for six days. The extent of the development of infection on the leaves was then determined visually.
Evaluation is carried out by determining the infected leaf areas in percent. These percentages were converted into efficacies.
The efficacy (E) is calculated as follows using Abbot's formula: […]
α corresponds to the fungal infection of the treated plants in % and β corresponds to the fungal infection of the untreated (control) plants in % An efficacy of 0 means that the infection level of the treated plants corresponds to that of the untreated control plants; an efficacy of 100 means that the treated plants are not infected.
The expected efficacies of the mixtures of active compounds are determined using Colby's formula [R. S. Colby, Weeds, 15, 20-22 (1967)] and are compared with the observed efficacies.
E expected efficacy, expressed in % of the untreated control, when using the mixture of the active compounds A and B at the concentrations a and b x efficacy, expressed in % of the untreated control, when using active compound A at the concentration a y efficacy, expressed in % of the untreated control, when using active compound B at the concentration b

| Compound | Efficacy in % of the untreated control (4 ppm in the spray liquor) [%] | Efficacy in % of the untreated control (1 ppm in the spray liquor) [%] | Efficacy in % of the untreated control (16 ppm in the spray liquor) [%] |
| --- | --- | --- | --- |
| CC1CCN(c2c(-c3c(F)cc(F)cc3F)c(Cl)nc3ncnn23)CC1 [I, 5-chloro-7-(4-methylpiperidin-1-yl)-6-(2,4,6-trifluorophenyl)-[1,2,4]tri-azolo[1,5-a]pyrimidine] | 32 |  |  |
| CCCCCCCCCCCCCN1CC(C)OC(C)C1 (stereo not shown) [II (tridemorph), tridemorph] | 0 | 0 | 9 |
